These are literature values, as cited in patent publication US12357624B2, “Low dose pridopidine for Parkinson's Disease and other diseases associated with parkinsonism” (PRILENIA NEUROTHERAPEUTICS LTD., priority 2019, dated 2025).

In this series the test system is B104 neuroblastoma cell line. Particulars: NE100 1 μM co-incubated with pridopidine; cited from earlier work.

In the case of `CCCN(CCC)CCc1ccc(OC)c(OCCc2ccccc2)c1` [NE100, reference compound], the BDNF secretion result was “BDNF secretion was inhibited”.
